Reference: BindingDB's records for doi:10.1016/j.chembiol.2007.09.006 (University of Virginia At Charlottesville, 2007)

Target: T1, Core-binding factor subunit beta (Homo sapiens, UniProt Q13951)
T1 sequence (Q13951 whole entry): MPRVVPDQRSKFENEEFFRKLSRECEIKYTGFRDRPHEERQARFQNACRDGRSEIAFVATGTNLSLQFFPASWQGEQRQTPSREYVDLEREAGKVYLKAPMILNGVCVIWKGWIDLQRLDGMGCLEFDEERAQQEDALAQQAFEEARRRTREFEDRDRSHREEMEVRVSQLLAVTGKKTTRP
Assay: FRET Assay
Conditions: pH 7.5; 23 °C
Procedure: Protein concentrations were determined by UV absorption at 433 nm for Cerulean-Runt and 513 nm for Venus-CBFbeta. […] Mean values of IC50 originating from two independent measurements performed in duplicate together with the standard deviations are reported.

SMILES | IC50 [µM]
Nc1nc(-c2cccc(Cl)c2)cs1 [thiazol-2-amine, 9] | 12
Cc1cccc(-c2csc(N)n2)c1 [thiazol-2-amine, 10] | 110
COc1cccc(-c2csc(N)n2)c1 [thiazol-2-amine, 11] | 61
Nc1nc(-c2ccc3c(c2)OCO3)cs1 [thiazol-2-amine, 8] | 9
Cc1ccccc1-c1csc(N)n1 [thiazol-2-amine, 13] | 5
COc1ccc(-c2csc(N)n2)cc1OC [thiazol-2-amine, 7] | 40.5
Nc1nc(-c2ccccc2Cl)cs1 [thiazol-2-amine, 14] | 1.1
COc1ccc(-c2csc(N)n2)cc1 [thiazol-2-amine, 6] | 18.5
Nc1nc(-c2ccc(C(F)(F)F)cc2)cs1 [thiazol-2-amine, 5] | 9

Now from value to compound:

IC50 [µM] | SMILES
66 | CCc1sc(N)nc1-c1cccc(C)c1 [thiazol-2-amine, 19]
23.5 | CCCc1sc(N)nc1-c1ccc(OC)cc1 [thiazol-2-amine, 18]
17 | CCc1sc(N)nc1-c1ccccc1OC [thiazol-2-amine, 20]
49 | Nc1nc(-c2ccc(Cl)cc2Cl)cs1 [thiazol-2-amine, 16]
3.2 | CCc1sc(N)nc1-c1ccc(OC)cc1 [thiazol-2-amine, 17]
> 500 | CCOc1ccc(-c2nc(N)sc2CC)cc1 [thiazol-2-amine, 21]
